How the values were obtained:
[1] = test system: Abies nordmanniana cell lines; assay: Maturation of Abies nordmanniana cell lines with different carbohydrate sources (shift from maltose to sucrose); assay type: cell-based; conditions: for development of mature embryos: 45 g/L as sole carbohydrate source during the entire maturation period (treatments A, B)
Method: Except from the carbohydrates, the basic maturation medium was composed as described for the control in example 1. However, PCIB was included in a prior determined optimum concentration and period for each of the tested cell lines. Four treatments with different combinations of carbohydrates were tested during maturation: • A) Maturation on culture medium comprising 45 g/L sucrose as carbohydrate source during the entire maturation period. • B) Maturation on culture medium comprising 45 g/L maltose as carbohydrate source during the entire maturation period. Typical embryo from the treatment is disclosed in the left picture of FIG. 9. • C) Maturation on culture medium with 45 g/L maltose during the first part of the maturation period, followed by a shift to maturation medium comprising 22.5 g/L sucrose and 22.5 g/L maltose during the last two weeks of the maturation period. Typical embryo from the treatment is disclosed in the right picture of FIG. 9. • D) Maturation on culture medium with 45 g/L maltose during the first part of the maturation period, followed by a shift to maturation medium comprising 45 g/L sucrose as carbohydrate source for the last two weeks of the maturation period. Typical embryo from the treatment is disclosed in the center picture of FIG. 9. Results

[2] = test system: Abies nordmanniana cell line G.3.8; assay: Maturation of established Abies nordmanniana cell line G.3.8 (fast proliferating); assay type: cell-based
Text: (§1) Three different cell lines of Abies nordmanniana were used in the present study. The tested cell lines have been in continuous culture for several years. The cell line G.3.8 was initiated from an immature zygotic embryo in 1989 on half strength MS medium (Murashige and Skoog, 1962) as described previously (Nørgaard and Krogstrup, 1991), Cell line G.35.8 was initiated from a mature zygotic embryo on SH medium in 1991 (Nørgaard and Krogstrup, 1995), and cell line G.78.14 was initiated in 1993 from an immature zygotic embryo on modified half strength BLG medium (Verhagen and Wann, 1989). From 1996, all cultures were maintained by biweekly subculture onto fresh half strength modified BLG medium and grown at 24+/−1° C. in the dark. Cell lines G.3.8 and G.78.14 proliferated fast on maintenance medium with a doubling time of the weight shorter than 2 weeks. Cell line G.35.8 proliferated relatively slowly with a doubling time of the weight higher than 2 weeks.
(§2) The standard maturation medium (the control) is modified from the half strength BLG proliferation medium mentioned above. […] The choice of these three culture medium components is determined primarily by the conifer species in question. […] Similarly it is known that addition of PEG-4000 improves maturation. Still it may be possible to obtain just as good results with other combinations of these components and also by using other components with equivalent effects.
(§3) In this experiment, the standard maturation medium was modified by excluding PEG and by including one of the following 3 chemicals, that are traditionally expected to affect the endogenous concentration of the naturally occurring auxin IAA or to affect the normal effect of auxin in plant cells: 1) PCIB (auxin-antagonist) in a concentration of 25 or 117 μM, 2) TIBA (auxin transport inhibitor) in a concentration of 5 or 50 μM, 3) phlouroglucinol: (inhibitor of auxin degradation) (see George 1993, page 429 bottom-430) in a concentration of 30 mM. In addition to these modifications the standard maturation medium was modified by: 4) reducing the concentration of boron (precursor of indole acetic acid synthesis) to 10 μM, i.e. 20% of the normal concentration and finally by 5) including 25 μM PCIB in medium with no ABA.
(§4) The cultures were matured in the dark at 24° C.+/−1° C.
Two weeks after the last subculture, 4 grams of embryogenic cells was transferred to a 250 mL Flask (Blue cap) together with a magnet stirrer. 100 mL of liquid proliferation medium was added, and the suspension was stirred for 5 minutes at high speed on a magnet stirrer to obtain a homogenous suspension of cells and cell clumps. The culture was then pre-cultured on a gyrotory shaker (120 rpm) for one week at 24+/−1° C. in the dark. […]

[3] = test system: Abies nordmanniana cell line G.35.8; assay: Maturation of established Abies nordmanniana cell line G.35.8 (slowly proliferating); assay type: cell-based
Text: as §1
The standard maturation medium (the control) is modified from the half strength BLG proliferation medium mentioned above. […] The choice of these three culture medium components is determined primarily by the conifer species in question. […] Similarly it is known that addition of PEG-4000 improves maturation. […]

[4] = test system: embryogenic cell lines of Abies nordmanniana; assay: Maturation of the tested established Abies nordmanniana embryogenic cell lines (G.3.8, G.35.8, G.78.14); assay type: cell-based
Text: as §1, §2, §3, §4
Two weeks after the last subculture, 4 grams of embryogenic cells was transferred to a 250 mL Flask (Blue cap) together with a magnet stirrer. 100 mL of liquid proliferation medium was added, and the suspension was stirred for 5 minutes at high speed on a magnet stirrer to obtain a homogenous suspension of cells and cell clumps. The culture was then pre-cultured on a gyrotory shaker (120 rpm) for one week at 24+/−1° C. in the dark. Following the pre-culture, the culture was stirred again on a magnet stirrer at high speed for 5 minutes. The culture was transferred to a 100 mL measuring cylinder and allowed to settle for 30 min. The supernatant was discharged and from the remaining culture aliquots of 1 mL were transferred with a cut pipette tip onto filter paper (Whatmann #2) placed on 25 mL of maturation medium in 10 cm Petri dishes (Nunc, Denmark). The filters containing the maturing somatic cultures were transferred onto fresh medium every 2 weeks.
FIG. 5 discloses maturation of cell line G.78.14. This cell line proliferates rapidly and produces very few normal mature embryos according to prior methods. The cell line was matured for 20 weeks on medium comprising 40 μM ABA and a) 25 μM PCIB, b) 0.4 mM phloroglucinol, or c) reduced concentration of Boron (20% of normal concentration). For control see FIG. 1a or 2a.
FIG. 6 discloses maturation of cell line G.78.14 for 20 weeks on maturation medium comprising 40 μM ABA and a) 2.5 mg/L TIBA (5 μM), or b) 25 mg/L TIBA (50 μM).

[5] = test system: mature somatic embryos of Abies nordmanniana; assay: Germination of mature somatic embryos; conditions: embryos matured with PCIB in the maturation medium
Method: Well-developed mature embryos were collected for cold treatment after about 20 weeks of maturation. The isolated mature embryos were transferred to a nylon filter that was placed on a foam rubber pad in a high Petri dish. A wetted filter paper was placed in the bottom and in the lid of the Petri dish. The Petri dish was closed, sealed with two rounds of polyethylene film, wrapped with aluminium foil, and then placed at 5° C. in the dark for 4 weeks for cold treatment. After cold treatment, the nylon filter with the mature embryos was transferred to BGM-2 medium (Krogstrup et al, 1988). The BGM-2 medium included 20 g/L sucrose, 10 g/L activated charcoal (Merck 5411), and was galled with 3.5 g/L Phytagel (Gellan gum). The Petri dishes were placed in a growth room at 20° C. with a 16 hour photoperiod. After one week of germination, the nylon net was removed and the embryos were placed in direct contact with the medium. After two weeks of germination, embryos with a root were placed vertically with the root submerged in the medium. Later, the germinating embryos were transferred to soil and placed in a controlled greenhouse.

[6] = test system: newly established Abies nordmanniana embryogenic cell lines; assay: Maturation in newly established Abies nordmanniana embryogenic cultures; assay type: cell-based; conditions: 8 weeks maturation, 40 μM ABA and 25 μM PCIB from week 2 to 4; cell lines less than 6 months old
Method: Approximately 50 cell lines were initiated from mature seeds in the same way as cell line G.78.14 (Example 1). The cultures were initiated and maintained on modified half strength BLG medium (See example 1). The cultures were less than 6 months old when they were subjected to maturation. The cultures were plated as described in Example 1. The cultures were subjected to two different maturation protocols. • 1) Maturation for 8 weeks on culture medium comprising 40 μM ABA and 5% PEG-4000. • 2) Maturation for as 1) but from week 2 to 4 the cultures were on culture medium comprising 40 μM ABA and 25 μM PCIB.

[7] = test system: Picea abies embryogenic cell lines D.2.9, D.4.1, D.7.1; assay: Maturation in embryogenic cultures of Picea abies; assay type: cell-based
Method: Three embryogenic cell lines, D.2.9, D.4.1, D.7.1, of Picea abies, initiated from immature seeds in 1989 and kept in cryostorage until 1998 as described by Nørgaard et al (1993) were used for the present experiment. The cultures were maintained on semi-solid proliferation medium BMI-S1 (Krogstrup 1986) gelled with 1.8 g/L gelrite by biweekly sub-cultures. Prior to transfer to maturation medium, 4 grams of cell mass from each cell line was weighed off and transferred to 50 ml liquid proliferation medium in a 250 ml Erlenmeyer flask. The flask also contained a sterile magnet.
To disintegrate the cultures they were stirred for 5 minutes using a magnet stirrer. Then the flasks were shaken for 15 minutes on a rotary shaker at 175 rpm. The medium with suspended cell aggregates were subsequently poured into a 100 ml measuring cylinder and allowed to settle for 30 minutes. The supernatant was discarded and aliquots of 1 ml of cells were plated on sterile Whatman #54 paper discs placed an the various maturation media. Three replicate dishes were made for each combination of cell line and treatment.
Five maturation protocols were tested. • A: Maturation on BMG-1 medium (Krogstrup et al 1988) modified by increasing the ABA concentration to 40 μM. • B: As A, but from week 2 to week 4 maturation on culture medium comprising 2.5 μM PCIB and 40 μM ABA. • C: As A, but from week 2 to week 4 maturation on culture medium comprising 5.0 μM PCIB and 40 μM ABA. • D: Maturation on medium comprising 2.5 μM PCIB and 40 μM ABA. • E: Maturation an medium comprising 5.0 μM PCIB and 40 μM ABA. Results

[8] = test system: Picea sitchensis cell lines G.1.12, G.1.13; assay: Maturation in embryogenic cultures of Picea sitchensis; assay type: cell-based; conditions: anti-auxin step as for Picea abies
Method: Two cell lines of Picea sitchensis, G.1.12, G.1.13, initiated from cotyledons from mature embryos were used for the present study. The cultures were initiated and pretreated on BMI-S1 medium as above, but with 1000 mg/L casein hydrolysate and 10 μM 2,4-D. Pretreatment, maturation medium and anti-auxin step as for Picea abies.

[9] = 25 μM PCIB + 40 μM ABA from week 4 to 8 of the 20 week maturation period
[10] = medium including both ABA and 25 μM PCIB

OC[C@H]1O[C@H](O[C@H]2[C@H](O)[C@@H](O)C(O)O[C@@H]2CO)[C@H](O)[C@@H](O)[C@@H]1O (mixture of isomers) [maltose]
development of mature embryos [1]: high numbers of embryos were produced | average fresh weight of mature embryos ([1]; treatment B: 45 g/L maltose during the entire maturation period): about 50 mg

CC(C)(Oc1ccc(Cl)cc1)C(=O)O [PCIB, p-Chlorophenoxyisobutyric acid]
number of well-formed mature embryos ([2]; 25 μM PCIB + 40 μM ABA during the entire 20 week maturation period): about 125 embryos per Petri dish | number of well formed mature embryos [2, 9]: about 40 embryos per Petri dish | proliferation during maturation ([2]; 25 μM PCIB during the entire maturation period): strongly reduced | proliferation during maturation ([2]; 25 μM PCIB from week 4 to 8 of the 20 week maturation period): reduced slightly | number of well formed mature embryos ([3]; 25 μM PCIB + 40 μM ABA during the entire maturation period): about 15 embryos per Petri dish | number of well formed mature embryos [3, 9]: about 250 embryos per Petri dish | proliferation during maturation ([4]; 25 μM PCIB, ABA excluded): proliferation was reduced | development of mature embryos ([4]; 25 μM PCIB, ABA excluded, 20 weeks, all tested cell lines): only few and clearly abnormal and precociously germinating embryos were developed | embryo morphology (abnormality) ([4]; higher concentrations than 25 μM of PCIB): the embryos developed asymmetrically with one major and one minor cotyledon (FIG. 4C) or with only one cotyledon | development of embryos during maturation [4, 10]: high numbers of embryos developed | proliferation during maturation [4, 10]: proliferation was reduced | embryo morphology (abnormality) ([4]; slowly proliferating cell lines, ABA and 25 μM PCIB for longer periods than 4 weeks): embryos with only two symmetric cotyledons developed | embryos that developed both shoot and root on germination [5]: ~100% | production of mature somatic embryos [6]: almost all cell lines produced high numbers of mature somatic embryos | production of mature somatic embryos ([7]; cell line D.2.9, anti-auxin step (2.5 or 5.0 μM PCIB + 40 μM ABA)): a high number of mature somatic embryos are in turn produced | number of somatic embryos compared with no anti-auxin step ([7]; cell lines D.4.1 and D.7.1 (A-type), 2.5 or 5.0 μM PCIB + 40 μM ABA): produced higher numbers of somatic embryos | proliferation during maturation ([7]; cell lines D.4.1 and D.7.1, 2.5 or 5.0 μM PCIB + 40 μM ABA): reduce the proliferation during maturation | general appearance of the cultures [8]: improved | proliferation during maturation [8]: proliferation was clearly reduced

O=C(O)c1cc(I)cc(I)c1I [TIBA, 2,3,5-tri-iodobenzoic acid]
development of mature embryos ([4]; TIBA 5 and 50 μM + 40 μM ABA, 20 weeks): only very few, and mostly abnormal, mature embryos developed | proliferation on the maturation medium ([4]; TIBA 5 and 50 μM + 40 μM ABA, all tested cell lines): strong reduction of the proliferation

Oc1cc(O)cc(O)c1 [phloroglucinol]
proliferation during maturation ([4]; phloroglucinol 0.4 mM + 40 μM ABA): proliferation was increased | development of well developed embryos ([4]; phloroglucinol 0.4 mM + 40 μM ABA, 20 weeks): no well developed embryos were found

OC[C@H]1O[C@@](CO)(O[C@H]2O[C@H](CO)[C@@H](O)[C@H](O)[C@H]2O)[C@@H](O)[C@@H]1O [sucrose]
development of mature embryos [1]: no well developed mature embryos were produced | size of the mature embryos ([1]; shift from maltose to medium including sucrose during the last two weeks of maturation (treatments C and D)): clear increase in the size of the mature embryos | reduction of the maturation period, treatment D compared to treatment B ([1]; shift to 45 g/L sucrose for the last two weeks): about four | average fresh weight of mature embryos ([1]; treatment D: 45 g/L maltose, shift to 45 g/L sucrose for the last two weeks): about 120 mg per embryo

Source: patent publication US6897065B1, “Method for maturation of conifer somatic embryos” (Woody Plant Biotech APS, priority 1999, dated 2005)
